Experimental data as given in patent US20010004643A1, “Pharmaceutical composition with sotalol combination and their use in treatment of cardiac ailments” (priority 1999, published 2001).
Entries after “also recorded” stand apart in the source; their conditions may differ. Marks after values point to notes of the source that are not given here.

Assays:
[1] = system: ouabain induced arrhythmia (VT, VF, mortality); experiment: Ouabain induced arrhythmia model in guinea pig; type: in vivo; details: for actual incidence of mortality (value in parenthesis): 60 min; for actual incidence of mortality (value in parenthesis) / actual incidence of VF (value in parenthesis) / actual incidence of VT (value in parenthesis): number of animals of the group; for % INCIDENCE OF MORTALITY: mortality at 60 min; for deaths due to conduction block (60 min), actual incidence (value in parenthesis) / deaths due to tachyarrhythmia (60 min), actual incidence (value in parenthesis): number of animals; for % INCIDENCE OF VF / % INCIDENCE OF VT: ouabain 240 μg/kg in three doses, observed one hour; for DEATHS DUE TO CONDUCTION BLOCK (60 MIN) Percentage / DEATHS DUE TO TACHYARRHYTHMIA (60 MIN) Percentage: percentage deaths out of total mortality; for dose at which complete protection against VT was observed / dose that completely protected against VF: guinea pig, in vivo
Description: Method: Guinea pigs (Dunken Hartley) of either sex weighing between 400 and 500 g were used for the study. The animals were anesthetized with urethane (1.25 g/kg. i.p.). The left common carotid artery and left jugular vein were cannulated for arterial blood pressure monitoring and intravenous access respectively. Lead II electrocardiogram, arterial blood pressure, mean arterial blood pressure (MABP), heart rate were monitored throughout the experiment.
After initial surgical preparations and allowing 30 minutes for the animal to stabilise the first dose of ouabain (90 μg/kg) was administered over a period of one minute. After the interval of thirty minutes, second dose of ouabain (60 μg/kg) was administered over a period of one minute. One minute after this dose, 0.5 ml saline (in control experiments) was administered over a period of one minute. After an interval of 10 minutes a third dose of ouabain (90 μg/kg) was administered over a period of one minute. […] The test compounds were administered to animals in test group in place of saline to evaluate their antiarrhythmic potential. From the ECG recordings, the incidence of VT, VF and mortality were recorded. The doses of ratios of sotalol isomers studied were 0.1, 0.5 and 2.5 mg/kg.
Interpretation of ECG recordings: Minor disturbance in rhythm was not considered while evaluating ventricular tachyarrhythmias. A run of more than 3 ventricular ectopic beats having wide QRS complexes associated with partial haemodynamic collapse was considered as Ventricular Tachycardia (VT). Total morphological irregularity of repetitive complexes for at least six cycles associated with complete haemodynamic collapse was considered as Ventricular Fibrillation (VF). Successful arrhythmia protection was defined as no occurrence of VT and VF from the injection of saline/test drug till the end of the experiment.
Statistics: Chi square test with continuity correction at 95% confidence limit was applied to find out the statistical significance between control and test groups for incidence of VT, VF and mortality. Whenever, any of the value in a cell was less than 5, Fischer's exact probability test was used.
Results: Different ratios of sotalol in the dose range from 0.02 mg/kg to 12.5 mg/kg were studied in individual groups of animals. In all 18 groups were studied and at least 6 animals were used in each group. In control animals ouabain 240 μg/kg in three divided doses induced reproducible ventricular tachyarrhythmias in guinea pigs. It was observed that ventricular arrhythmias appeared after the administration of the third dose. Guinea pigs which responded early i.e. before or within 1 min. of administration of the second dose, were considered early responders and were not included in the study. […] In the study, control experiments were carried out randomly interspersed in test groups. Among the 42 control animals the incidence of VT was 81%, incidence of VF was 71.4% and the incidence of mortality at 60 minutes was 61.9%.

[2] = system: beta adrenergic blockade, isolated right auricle preparation of rabbit; experiment: Beta blocking potency (pA2 against isoprenaline) in isolated rabbit right auricle; details: isoprenaline chronotropic response, Schild's plot
Description: Estimation of the beta blockade of various ratios of d- and l- isomers of sotalol was carried out in the isolated right auricle preparation of rabbit. The spontaneously beating right atrium was dissected and mounted in a 20 ml tissue bath. The resting tension on the atria was set at 1 g. The contractions were recorded using a force displacement transducer. The spontaneous contractions of the right atria were recorded isometrically and the heart rate was obtained as a derived parameter using a ratemeter that gave the output in beats per minute. Six different ratios of d and l isomers were investigated (1:1, 2:1, 3:1, 4:1, 5:1 and 1:0). Dose-response-curves (DRC) for isoprenaline in the isolated atria, using the chronotropic response were determined by cumulative addition of isoprenaline. The pA2 values of each of the ratios were estimated using the classical Schild's plot (Schild, 1957) and the values are shown in Table 1.

Structure (SMILES): CC(C)NCC(O)c1ccc(NS(C)(=O)=O)cc1 (stereo not drawn) [4:1 RATIO, N-[4-[1-hydroxy-2-[(1-methylethyl)amino]ethyl]phenyl] methane sulfonamide]
- actual incidence of mortality (value in parenthesis) ([1]; 0.5 mg/kg): (2)
- % INCIDENCE OF MORTALITY ([1]; 0.5 mg/kg): 33.3%
- deaths due to conduction block (60 min), actual incidence (value in parenthesis) ([1]; 0.5 mg/kg): (1)
- deaths due to tachyarrhythmia (60 min), actual incidence (value in parenthesis) ([1]; 0.5 mg/kg): (1)
- actual incidence of VF (value in parenthesis) ([1]; 0.5 mg/kg): (6)
- actual incidence of VT (value in parenthesis) ([1]; 0.5 mg/kg): (6)
- % INCIDENCE OF VF ([1]; 0.5 mg/kg): 100.0%
- % INCIDENCE OF VT ([1]; 0.5 mg/kg): 100.0%
- DEATHS DUE TO CONDUCTION BLOCK (60 MIN) Percentage ([1]; 0.5 mg/kg): 50.0%
- DEATHS DUE TO TACHYARRHYTHMIA (60 MIN) Percentage ([1]; 0.5 mg/kg): 50.0%
- protection against VF ([1]; 2.5 mg/kg): some protection
- protection against ouabain induced VT ([1]; 2.5 mg/kg): some protection
- actual incidence of mortality (value in parenthesis) ([1]; 2.5 mg/kg): (2)
- protection against arrhythmias (VT and VF) ([1]; 2.5 mg/kg, listed as 4:1): could not protect
- % INCIDENCE OF MORTALITY ([1]; 2.5 mg/kg): 33.3%
- % INCIDENCE OF MORTALITY ([1]; 2.5 mg/kg, listed as 4:1): 33.3%
- deaths due to conduction block (60 min), actual incidence (value in parenthesis) ([1]; 2.5 mg/kg): (2)
- deaths due to tachyarrhythmia (60 min), actual incidence (value in parenthesis) ([1]; 2.5 mg/kg): (0)
- actual incidence of VF (value in parenthesis) ([1]; 2.5 mg/kg): (2)
- actual incidence of VT (value in parenthesis) ([1]; 2.5 mg/kg): (2)*
- % INCIDENCE OF VF ([1]; 2.5 mg/kg): 33.3%
- % INCIDENCE OF VT ([1]; 2.5 mg/kg): 33.3%
- % INCIDENCE OF VF ([1]; 2.5 mg/kg, listed as 4:1): 33.3%
- % INCIDENCE OF VT ([1]; 2.5 mg/kg, listed as 4:1): 33.3%
- DEATHS DUE TO CONDUCTION BLOCK (60 MIN) Percentage ([1]; 2.5 mg/kg): 100.0%
- DEATHS DUE TO TACHYARRHYTHMIA (60 MIN) Percentage ([1]; 2.5 mg/kg): 00.0%
- protection against arrhythmias (VT and VF) ([1]; 12.5 mg/Kg): could protect
- actual incidence of mortality (value in parenthesis) ([1]; 12.5 mg/kg): (4)
- % INCIDENCE OF MORTALITY ([1]; 12.5 mg/kg): 66.6%
- % INCIDENCE OF MORTALITY ([1]; 12.5 mg/kg, listed as 4:1 ratio): 66.6%
- deaths due to conduction block (60 min), actual incidence (value in parenthesis) ([1]; 12.5 mg/kg): (3)
- deaths due to tachyarrhythmia (60 min), actual incidence (value in parenthesis) ([1]; 12.5 mg/kg): (1)
- actual incidence of VF (value in parenthesis) ([1]; 12.5 mg/kg): (0)*
- actual incidence of VT (value in parenthesis) ([1]; 12.5 mg/kg): (0)*
- % INCIDENCE OF VF ([1]; 12.5 mg/kg): 00.0%
- % INCIDENCE OF VT ([1]; 12.5 mg/kg): 00.0%
- DEATHS DUE TO CONDUCTION BLOCK (60 MIN) Percentage ([1]; 12.5 mg/kg): 75.0%
- DEATHS DUE TO TACHYARRHYTHMIA (60 MIN) Percentage ([1]; 12.5 mg/kg): 25.0%
- mortality ([1]; effective dose of 12.5 mg/kg): significantly high
- dose at which complete protection against VT was observed ([1]; listed as 4:1 ratio (d:l)): 12.5 mg/kg
- dose that completely protected against VF ([1]; listed as 4:1 ratio (d:l)): 12.5 mg/kg
- pA2 Mean ([2]; listed as 4:1): 6.01

Structure (SMILES): CC(C)NCC(O)c1ccc(NS(C)(=O)=O)cc1 (stereo not drawn) [2:1 RATIO, N-[4-[1-hydroxy-2-[(1-methylethyl)amino]ethyl]phenyl] methane sulfonamide]
- protection against VF ([1]; 0.5 mg/kg): some protection, it was not complete
- actual incidence of mortality (value in parenthesis) ([1]; 0.5 mg/kg): (3)
- protection against ouabain induced VT ([1]; 0.5 mg/kg, listed as 2:1 ratio (d:l)): some protection, it was not significant
- % INCIDENCE OF MORTALITY ([1]; 0.5 mg/kg): 50.0%
- deaths due to conduction block (60 min), actual incidence (value in parenthesis) ([1]; 0.5 mg/kg): (3)
- deaths due to tachyarrhythmia (60 min), actual incidence (value in parenthesis) ([1]; 0.5 mg/kg): (0)
- actual incidence of VF (value in parenthesis) ([1]; 0.5 mg/kg): (2)
- actual incidence of VT (value in parenthesis) ([1]; 0.5 mg/kg): (3)
- % INCIDENCE OF VF ([1]; 0.5 mg/kg): 33.3%
- % INCIDENCE OF VT ([1]; 0.5 mg/kg): 50.0%
- DEATHS DUE TO CONDUCTION BLOCK (60 MIN) Percentage ([1]; 0.5 mg/kg): 100.0%
- DEATHS DUE TO TACHYARRHYTHMIA (60 MIN) Percentage ([1]; 0.5 mg/kg): 00.0%
- protection against mortality ([1]; 2.5 mg/kg): protected significantly
- protection from deaths due to tachyarrhythmias ([1]; 2.5 mg/kg): completely protected
- protection against arrhythmias (VT and VF) ([1]; 2.5 mg/kg, listed as 2:1): completely protects; also recorded: complete protection
- % INCIDENCE OF MORTALITY ([1]; 2.5 mg/kg): 16.6%
- % INCIDENCE OF MORTALITY ([1]; 2.5 mg/kg, listed as 2:1): 16.6%
- deaths due to conduction block (60 min), actual incidence (value in parenthesis) ([1]; 2.5 mg/kg): (1)
- deaths due to tachyarrhythmia (60 min), actual incidence (value in parenthesis) ([1]; 2.5 mg/kg): (0)
- actual incidence of VF (value in parenthesis) ([1]; 2.5 mg/kg): (0)*
- actual incidence of VT (value in parenthesis) ([1]; 2.5 mg/kg): (0)*
- % INCIDENCE OF VF ([1]; 2.5 mg/kg): 00.0%
- % INCIDENCE OF VT ([1]; 2.5 mg/kg): 00.0%
- DEATHS DUE TO CONDUCTION BLOCK (60 MIN) Percentage ([1]; 2.5 mg/kg): 100.0%
- DEATHS DUE TO TACHYARRHYTHMIA (60 MIN) Percentage ([1]; 2.5 mg/kg): 00.0%
- dose at which complete protection against VT was observed ([1]; listed as 2:1 ratio (d:l)): 2.5 mg/kg
- dose that completely protected against VF ([1]; listed as 2:1 ratio (d:l)): 2.5 mg/kg
- cause of deaths ([1]; no dose stated): due to conduction abnormalities
- mortality compared with control groups ([1]; no dose stated): less than that of control groups
- pA2 Mean ([2]; listed as 2:1): 6.28
